Results on 20 compounds are retold here after patent publication US20250084084A1, “Crystalline form of (2R)-2-(5-fluoro-2-methoxypyridin-4-yl)-1-[(2S)-7-methyl-6-(pyrimidin-2-yl)-3,4-dihydro-1H-spiro[1,8-naphthyridine-2,3-pyrrolidin]-1-yl]propan-1-one” (Pfizer Inc., priority 2020, published 2025).

Chain of α-melanocyte-stimulating hormone receptor (hMC4R) (P32245 whole entry): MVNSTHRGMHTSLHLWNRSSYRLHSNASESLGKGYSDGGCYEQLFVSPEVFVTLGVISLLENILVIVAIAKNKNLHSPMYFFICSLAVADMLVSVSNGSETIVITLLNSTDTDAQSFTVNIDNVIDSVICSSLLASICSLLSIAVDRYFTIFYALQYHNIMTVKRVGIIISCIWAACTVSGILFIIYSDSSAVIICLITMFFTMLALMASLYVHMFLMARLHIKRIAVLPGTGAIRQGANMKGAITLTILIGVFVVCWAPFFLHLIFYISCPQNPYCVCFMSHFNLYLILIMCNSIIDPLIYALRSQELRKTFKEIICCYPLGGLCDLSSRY

In the first assay the target is human Melanocortin-4 receptor (MC4R) (Homo sapiens (Human), UniProt P32245). Description: Functional in vitro MC4R antagonist potency assay (cAMP HTRF in CHO cells, αMSH EC80 stimulation). Conditions: cAMP HTRF in CHO cells expressing human MC4R, 200 nM αMSH (EC80); Kb by Leff-Dougall equation; geometric mean. The assay is classed as cell-based. Here is the method: The functional in vitro antagonist potency for test compounds was determined by monitoring intracellular cyclic adenosine monophosphate (cAMP) levels in Chinese hamster ovary (CHO—) cells stably expressing the human Melanocortin-4 receptor (MC4R). […] The activated Ga subunit can couple to downstream effectors to regulate the levels of second messengers or cAMP within the cell. Thereby, determination of intracellular cAMP levels allows for pharmacological characterization. Intracellular cAMP levels are quantitated using a homogenous assay utilizing the Homogeneous Time-Resolved Fluorescence (HTRF) technology from CisBio. The method is a competitive immunoassay between native cAMP produced by cells and the cAMP labelled with the acceptor dye, d2. The two entities then compete for binding to a monoclonal anti-cAMP antibody labeled with cryptate. The specific signal is inversely proportional to the concentration of cAMP in the cells.
Chain of human Melanocortin-4 receptor (MC4R) (P32245 whole entry): as above
Test compounds were solubilized to 30 mM in 100% dimethyl sulfoxide (DMSO) and stored. […]
(95% O2: 5% CO2) overnight, with micro-clime lids (Labcyte, Cat No. LLS-0310). […] Intracellular cAMP levels were quantified as per Cisbio's protocol (5 uL of D2 and then 5 uL Cryptate, incubated for 1-2 hours at room temperature).
Data expressed as nM cAMP were then normalized to control wells using Activity Base (IDBS). […]
(TR-FRET usually uses a lanthanide donor and a delayed reading to cut background.)
Broadly, the Kb is the equilibrium dissociation constant of an antagonist, usually derived from a functional assay. With `COc1cc([C@@H](C)C(=O)N2CC[C@@]3(CCc4cc(Cl)c(C)nc4N3)C2)c(F)cn1` (single isomer, unassigned) [Example 103], the Kb was above 92 nM.

Still in this assay, the particulars now being: read-out: Kb (nM) Antagonist geometric.
With `COc1cc([C@@H](C)C(=O)N2CC[C@@]3(CCc4cc(-c5cnccn5)c(C)nc4N3)C2)c(F)cn1` [Example 142, (2R)-2-(5-fluoro-2-methoxypyridin-4-yl)-1-[(2S)-7-methyl-6-(pyrazin-2-yl)-3,4-dihydro-1H-spiro[1,8-naphthyridine-2,3′-pyrrolidin]-1′-yl]propan-1-one], the Kb is 3.6 nM.

The target of another assay is α-melanocyte-stimulating hormone receptor (hMC4R) (Homo sapiens (Human), UniProt P32245). Description: In vitro binding affinity assay using hMC4R (radioligand competition binding, [125I]-(Nle4, D-Phe7)-α-MSH). Conditions: geometric mean, read-out: Ki (nM) geometric. The gist of the method:
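Membranes from CHO cells stably expressing hMC4R (2 μg/well) incubated 2 h RT with [125I]-NDP-α-MSH and compound (300 nM-0.01 nM, 1% DMSO); 2 μM α-MSH defined nonspecific binding. Filtration and scintillation counting; Ki from IC50 via Cheng-Prusoff.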
What is called Ki is a measure of affinity in units of concentration, obtained from inhibition or displacement. Take `COc1cc([C@@H](C)C(=O)N2CC[C@@]3(CCc4cc(-c5cnccn5)c(C)nc4N3)C2)c(F)cn1` [Example 142, (2R)-2-(5-fluoro-2-methoxypyridin-4-yl)-1-[(2S)-7-methyl-6-(pyrazin-2-yl)-3,4-dihydro-1H-spiro[1,8-naphthyridine-2,3′-pyrrolidin]-1′-yl]propan-1-one]: the inhibitory constant (Ki) was 1.8 nM.
`COc1cc([C@@H](C)C(=O)N2CC[C@@]3(CCc4cc(-c5cc(C)ns5)c(C)nc4N3)C2)c(F)cn1` [Example 176, (2R)-2-(5-fluoro-2-methoxypyridin-4-yl)-1-[(2S)-7-methyl-6-(3-methyl-1,2-thiazol-5-yl)-3,4-dihydro-1H-spiro[1,8-naphthyridine-2,3′-pyrrolidin]-1′-yl]propan-1-one]: the Ki is 26 nM.
As to `COc1cc([C@@H](C)C(=O)N2CC[C@@]3(CCc4cc(-c5cncc(C6CC6)n5)c(C)nc4N3)C2)c(F)cn1` [Example 177, (2R)-1-[(2S)-6-(6-cyclopropylpyrazin-2-yl)-7-methyl-3,4-dihydro-1H-spiro[1,8-naphthyridine-2,3′-pyrrolidin]-1′-yl]-2-(5-fluoro-2-methoxypyridin-4-yl)propan-1-one], the inhibition constant (Ki) came to 59 nM.
On the same count and under the same terms, for `COc1cc([C@@H](C)C(=O)N2CC[C@@]3(CCc4cc(-c5cccc(C(F)(F)F)n5)c(C)nc4N3)C2)c(F)cn1` [Example 178, (2R)-2-(5-fluoro-2-methoxypyridin-4-yl)-1-{(2S)-7-methyl-6-[6-(trifluoromethyl)pyridin-2-yl]-3,4-dihydro-1H-spiro[1,8-naphthyridine-2,3′-pyrrolidin]-1′-yl}propan-1-one] the value was 4.7 nM.
The same measure, in the same setting: for `COc1cc([C@@H](C)C(=O)N2CC[C@@]3(CCc4cc(-c5ccc(C(F)F)cn5)c(C)nc4N3)C2)c(F)cn1` [Example 179, (2R)-1-{(2S)-6-[5-(difluoromethyl)pyridin-2-yl]-7-methyl-3,4-dihydro-1H-spiro[1,8-naphthyridine-2,3′-pyrrolidin]-1′-yl}-2-(5-fluoro-2-methoxypyridin-4-yl)propan-1-one] the value was 21 nM; for `COc1cc([C@@H](C)C(=O)N2CC[C@@]3(CCc4cc(-c5ccc(OC(F)(F)F)cn5)c(C)nc4N3)C2)c(F)cn1` [Example 180, (2R)-2-(5-fluoro-2-methoxypyridin-4-yl)-1-{(2S)-7-methyl-6-[5-(trifluoromethoxy)pyridin-2-yl]-3,4-dihydro-1H-spiro[1,8-naphthyridine-2,3′-pyrrolidin]-1′-yl}propan-1-one], 21 nM.
Same read-out and setting: the figure for `COc1cc([C@@H](C)C(=O)N2CC[C@@]3(CCc4cc(-c5cccc(C(F)F)n5)c(C)nc4N3)C2)c(F)cn1` [Example 181, (2R)-1-{(2S)-6-[6-(difluoromethyl)pyridin-2-yl)-7-methyl-3,4-dihydro-1H-spiro[1,8-naphthyridine-2,3′-pyrrolidin]-1′-yl}-2-(5-fluoro-2-methoxypyridin-4-yl)propan-1-one] is 2.4 nM; for `COc1cc([C@@H](C)C(=O)N2CC[C@@]3(CCc4cc(-c5nc(C(F)(F)F)cs5)c(C)nc4N3)C2)c(F)cn1` [Example 182, (2R)-2-(5-fluoro-2-methoxypyridin-4-yl)-1-{(2S)-7-methyl-6-[4-(trifluoromethyl)-1,3-thiazol-2-yl]-3,4-dihydro-1H-spiro[1,8-naphthyridine-2,3′-pyrrolidin]-1′-yl}propan-1-one] it is 12 nM.
On to `COc1cc([C@@H](C)C(=O)N2CC[C@@]3(CCc4cc(-c5cc(C)nc(C(C)C)n5)c(C)nc4N3)C2)c(F)cn1` [Example 183, (2R)-2-(5-fluoro-2-methoxypyridin-4-yl)-1-{(2S)-7-methyl-6-[6-methyl-2-(propan-2-yl)pyrimidin-4-yl]-3,4-dihydro-1H-spiro[1,8-naphthyridine-2,3′-pyrrolidin]-1′-yl}propan-1-one], for which the Ki worked out at 4 nM.
For the compound `COc1cc([C@@H](C)C(=O)N2CC[C@@]3(CCc4cc(-c5nc(C)cc(C)n5)c(C)nc4N3)C2)c(F)cn1` [Example 184, (2R)-1-[(2S)-6-(4,6-dimethylpyrimidin-2-yl)-7-methyl-3,4-dihydro-1H-spiro[1,8-naphthyridine-2,3′-pyrrolidin]-1′-yl]-2-(5-fluoro-2-methoxypyridin-4-yl)propan-1-one], the Ki was found to be 6.3 nM.
On to `COc1cc([C@@H](C)C(=O)N2CC[C@@]3(CCc4cc(-c5ccc(C6CC6)cn5)c(C)nc4N3)C2)c(F)cn1` [Example 186, (2R)-1-[(2S)-6-(5-cyclopropylpyridin-2-yl)-7-methyl-3,4-dihydro-1H-spiro[1,8-naphthyridine-2,3′-pyrrolidin]-1′-yl]-2-(5-fluoro-2-methoxypyridin-4-yl)propan-1-one], for which the inhibition constant Ki was determined as 19 nM.
With `COc1cc([C@@H](C)C(=O)N2CC[C@@]3(CCc4cc(-c5nc(N6CCOCC6)n(C)n5)c(C)nc4N3)C2)c(F)cn1` [Example 187, (2R)-2-(5-fluoro-2-methoxypyridin-4-yl)-1-{(2S)-7-methyl-6-[1-methyl-5-(morpholin-4-yl)-1H-1,2,4-triazol-3-yl]-3,4-dihydro-1H-spiro[1,8-naphthyridine-2,3′-pyrrolidin]-1′-yl}propan-1-one], the Ki stood at 5.5 nM.
The same measure, in the same setting: the figure for `COc1cc([C@@H](C)C(=O)N2CC[C@@]3(CCc4cc(-c5nc(C)n(C(F)F)n5)c(C)nc4N3)C2)c(F)cn1` [Example 188, (2R)-1-{(2S)-6-[1-(difluoromethyl)-5-methyl-1H-1,2,4-triazol-3-yl]-7-methyl-3,4-dihydro-1H-spiro[1,8-naphthyridine-2,3′-pyrrolidin]-1′-yl}-2-(5-fluoro-2-methoxypyridin-4-yl)propan-1-one] is 0.41 nM; for `COc1cc([C@@H](C)C(=O)N2CC[C@@]3(CCc4cc(-c5nc(C(F)F)n(C6CC6)n5)c(C)nc4N3)C2)c(F)cn1` [Example 189, (2R)-1-{(2S)-6-[1-cyclopropyl-5-(difluoromethyl)-1H-1,2,4-triazol-3-yl]-7-methyl-3,4-dihydro-1H-spiro[1,8-naphthyridine-2,3′-pyrrolidin]-1′-yl}-2-(5-fluoro-2-methoxypyridin-4-yl)propan-1-one] it is 1.3 nM.
As to `COc1cc([C@@H](C)C(=O)N2CC[C@@]3(CCc4cc(-c5ccnc(N6CCOCC6)n5)c(C)nc4N3)C2)c(F)cn1` [Example 196, (2R)-2-(5-fluoro-2-methoxypyridin-4-yl)-1-{(2S)-7-methyl-6-[2-(morpholin-4-yl)pyrimidin-4-yl]-3,4-dihydro-1H-spiro[1,8-naphthyridine-2,3′-pyrrolidin]-1′-yl}propan-1-one], the Ki turned out to be 8.1 nM.
`COc1cc([C@@H](C)C(=O)N2CC[C@@]3(CCc4cc(-c5cccc(OC(F)F)n5)c(C)nc4N3)C2)c(F)cn1` [Example 198, (2R)-1-{(2S)-6-[6-(difluoromethoxy)pyridin-2-yl]-7-methyl-3,4-dihydro-1H-spiro[1,8-naphthyridine-2,3′-pyrrolidin]-1′-yl}-2-(5-fluoro-2-methoxypyridin-4-yl)propan-1-one]: the Ki was found to be 2.5 nM.
As for `COc1cc([C@@H](C)C(=O)N2CC[C@@]3(CCc4cc(-c5ccc(C6CC6)nn5)c(C)nc4N3)C2)c(F)cn1` [Example 199, (2R)-1-[(2S)-6-(6-cyclopropylpyridazin-3-yl)-7-methyl-3,4-dihydro-1H-spiro[1,8-naphthyridine-2,3′-pyrrolidin]-1′-yl]-2-(5-fluoro-2-methoxypyridin-4-yl)propan-1-one], the inhibition constant Ki was 15 nM.
On the same count and under the same terms, the figure for `COc1cc([C@@H](C)C(=O)N2CC[C@@]3(CCc4cc(-c5nccc(C(F)F)n5)c(C)nc4N3)C2)c(F)cn1` [Example 200, (2R)-1-{(2S)-6-[4-(difluoromethyl)pyrimidin-2-yl]-7-methyl-3,4-dihydro-1H-spiro[1,8-naphthyridine-2,3′-pyrrolidin]-1′-yl}-2-(5-fluoro-2-methoxypyridin-4-yl)propan-1-one] is 0.82 nM; for `COc1cc([C@@H](C)C(=O)N2CC[C@@]3(CCc4cc(-c5ncc(C(F)(F)F)s5)c(C)nc4N3)C2)c(F)cn1` [Example 201, (2R)-2-(5-fluoro-2-methoxypyridin-4-yl)-1-{(2S)-7-methyl-6-[5-(trifluoromethyl)-1,3-thiazol-2-yl]-3,4-dihydro-1H-spiro[1,8-naphthyridine-2,3′-pyrrolidin]-1′-yl}propan-1-one] it is 110 nM.
